# Measured values as given in US11564913B2, “Compositions and methods for treating cancer” (Children's Hospital Medical Center, priority 2019, dated 2023).
# How the values were obtained:
# [1] = tested on: MDA-MB-231 cells; test: Cell spreading on fibronectin; type: cell-based, human; conditions: 30 min exposure, serum-free
# Protocol: FIG. 6: IODVA1 inhibits cell-substratum and cell-cell interactions. (A) IODVA1 impedes spreading of MCF7 and MDA-MB-231 cells on fibronectin. MCF7, T47D, and MDA-MB-231 cells were incubated on fibronectin coated coverslips for 10 min, then further incubated with the indicated concentrations of IODVA1 for 30 min in serum-free media, fixed and observed by bright field microscopy. Areas of single cells were calculated from 6 random fields (no less than 300 cells total per treatment group). Results shown are mean±s.e.m. of a single experiment and are representative of three independent experiments. (B) Effects of IODVA1 treatment on spheroid formation in MCF10A, MCF7, T47D, and MDA-MB-231 cells. […] Aggregates and spheroids were dissociated with accutase and trituration, and the number of live cells was determined by trypan blue exclusion. […]
# Applicants assessed if IODVA1 interferes with cell spreading on the extracellular matrix, an event that is also governed by the rearrangement of the actin cytoskeleton. […] No changes in the area in T47D cells were detected, although more rounded cells in the presence of IODVA1 were observed.
# For cell spreading, MDA-MB-231, MCF7 and T47D were seeded on fibronectin-coated coverslips in serum-free media. […] Six random fields were imaged under 20× objective and cell area of individual cells were quantified to assess the degree of spreading (ImageJ). […]
# [2] = tested on: Rac1Δ/Δ+Rac2−/− murine leukemic cells expressing p190-BCR-ABL; test: Clonogenic ability of Rac-deficient leukemic cells; type: cell-based; conditions: 1 μM
# Protocol: FIG. 13: IODVA1 decreases Rac activation and signaling. (A) Ba/F3 cells expressing p190-BCR-ABL1 were treated with IODVA1 (3 μM) as indicated and levels of active Rac (Rac-GTP) were assessed by pull-down using GST-PAK-GBD, followed by immunoblotting (upper panel) and densitometric quantification (lower panel). (B) Flow-cytometry analysis of pJNK, pS6, p4EBP, pPAK1, and pAKT of Ba/F3 cells expressing Mieg3 empty vector (light and dark blue) or p190-BCR-ABL1 (light and dark salmon) and treated with vehicle control or IODVA1 (3 μM) for 30 min. (C) Representative histogram data of the cell cycle analysis of Ba/F3 cells expressing p190-BCR-ABL and treated with vehicle control or IODVA1 (1, 3, and 10 μM) for 20 h. (D) Quantification of the average number of colonies of bone marrow wild-type (black) and Rac1^Δ/Δ+Rac2^−/− (red) p190-BCR-ABL1 leukemic cells treated with vehicle control or IODVA1 (IO1, 1 μM). ns—not significant, * p<0.05, ** p<0.01, *** p<0.001. […] (G) Ba/F3 cells expressing p190-BCR-ABL1 were treated with IODVA1 (3 μM) and levels of active Cdc42 (Cdc42-GTP) and Rho (Rho-GTP) were assessed by pull-down at the indicated times using GST-PAK-GBD and GST-Rhotekin respectively, followed by immunoblotting (left panel) and densitometric quantification (right panel). […]
# To confirm that IODVA1 targets Rac-dependent pathways, we assessed its effects in a Rac2-null background. […]
structure (smiles),measurement,setting,value
"OC1(c2ccccn2)N=C(Nc2nc3ccccc3[nH]2)N=C1c1ccccn1 (centres unmarked) [IODVA1, (Z)-2-((1H-benzo[d]imidazol-2-yl)imino)-4,5-di(pyridin-2-yl)-2,5-dihydro-1H-imidazol-5-ol]",concentration at which spreading is interfered with (decrease in cell area),[1],1 µM
same,number of colonies formed,[2],did not alter
